Measurements taken from patent US20090054319A1, “Methods and Compositions for the Treatment of Hypertension and Gastrointestinal Disorders” (MICROBIA, INC., priority 2005, published 2009).
Bridges are numbered along the chain shown (N, C = ends). Where no end group is shown, it is not given here.

Tests used:
chymotrypsin [1] = details: cited from earlier work
chymotrypsin [2] = target: T1, chymotrypsin (Bos taurus, UniProt P00766, DEL14-15/DEL147-148); assay: T84 cGMP assay to assess guanylin activity after a chymotrypsin digestion assay (guanylin degradation assay); format: biochemical, bovine; details: T84 cells, FIG. 1
T1 construct: purchased Sigma C6423
Method: Since guanylin is susceptible to digestion by chymotrypsin, chymotrypsin activity can be assayed based on guanylin cleavage. […] From this stock, six (6) 500 μl aliquots were prepared in 2 ml Eppendorf tubes and labeled “Control”, “T0”, “T15”, “T30”, “T60”, and “T180”, with “T_” representing timepoints, in minutes. 5 μl of a 10 mM chymostatin (Sigma, C7268) stock (5 mg of chymostatin resuspended in 824 μl of DMSO) was added to the “Control” samples and all samples were incubated for 5 minutes at 30° C. Chymostatin inhibits chymotrypsin activity and this sample served as a negative control. Next, 20 μl of a chymotrypsin (Sigma, C6423) enzyme solution (0.01 mg/ml bovine chymotrypsin enzyme in 1 mM HCl, 2 mM Calcium Chloride) were added to the samples and mixed by inversion. Samples are incubated at 30° C. […] Determination of sensitivity to digestion by chymotrypsin was determined by LCMS analysis and by in vitro activity in the T84 cGMP assays described below.
The ability of guanylin to activate the intestinal GC-C receptor was assessed in an assay employing the T84 human colon carcinoma cell line (American Type Culture Collection (Bethesda, Md.). For the assays cells were grown to confluency in 24-well culture plates with a 1:1 mixture of Ham's F12 medium and Dulbecco's modified Eagle's medium (DMEM), supplemented with 5% fetal calf serum and were used at between passages 54 and 60. […]

[3] = test system: intestinal fluid secretion; details: suckling mouse model; Santos-Neto et al 2003 Pharm & Toxicol 92:114; cited from earlier work

CC(C)C[C@H](NC(=O)[C@@H](NC(=O)N[C@@H](Cc1ccccc1)C(=O)O)C1CCNC(=N)N1)C(=O)N[C@H](C=O)Cc1ccccc1 (stereo partly drawn) [chymostatin, N—(Na-Carbonyl-[S,S]-a-(2-Iminohexahydro-4-pyrimidyl)glycine)-X-Phe-al)-Phe where X is Leu, Val or Ile]
chymotrypsin-mediated inactivation of guanylin (chymotrypsin [1]): can be prevented
guanylin stimulated cGMP activity when chymotrypsin inhibitor present (chymotrypsin [2]; chymostatin present during chymotrypsin digestion of guanylin): retained
guanylin-induced intestinal fluid secretion [3]: required in order to observe guanylin-induced intestinal fluid secretion

bovine chymotrypsin enzyme (Sigma, C6423)
guanylin degradation assay: loss of guanylin-stimulated cGMP activity and LC/MS of guanylin processing (Guanylin (Sigma, G-116)): guanylin stimulated cGMP activity decreases over time in the presence of chymotrypsin

guanylin: intestinal peptide that stimulates chloride secretion; mature protein has 15 amino acids; agonist of the GC-C receptor (PGTCEICAYAACTGC; disulfide 4-12, 7-15; UniProt Q02747 101-115, looked up)
cleavage of guanylin by chymotrypsin (chymotrypsin [1]; Greenberg et al. J Investig Med 45:276-82, 1997): chymotrypsin can cleave guanylin
guanylin stimulated cGMP activity (chymotrypsin [2]; in the presence of chymotrypsin, timepoints 0-180 min at 30° C.): decreases over time
